Structures can show the parent of a compound that is named as a salt.
How the values were obtained:
[1] = 23° C., pH=4.4; cited from earlier work
[2] = Saturated solution of the maleate salt (Funke et al., literature); assay type: physicochemical; conditions: water, thermodynamic from solid; translated from saturated solution of the maleate at 23° C., pH=4.4; read-out: free base solubility
[3] = Hygroscopic nature by dynamic vapor sorption; assay type: physicochemical; conditions: relative humidities greater than about 20%
From the text: The hygroscopic nature of the succinate salt hemihydrate was investigated by dynamic vapor sorption.

Row | solubility [2] | water content by dynamic vapor sorption [3] | Molecule | concentration of saturated solution [1]
1 | ~4100 µg/mL |  | CN1C[C@@H]2c3ccccc3Oc3ccc(Cl)cc3[C@H]2C1 (relative stereo) [maleate salt of Asenapine, trans-5-chloro-2-methyl-2,3,3a,12b-tetrahydro-1H-dibenz[2,3:6,7]oxepino[4,5-c]pyrrole] | 5800 µg/mL
2 |  | 2 to 2.5% | Asenapine succinate form I [succinate salt hemihydrate] | 
